Reference: ChEMBL document CHEMBL4004804, “Rationally designed benzopyran fused isoxazolidines and derived β2,3,3-amino alcohols as potent analgesics: Synthesis, biological evaluation and molecular docking analysis” (Eur J Med Chem, 2017)
The source made the active and inactive calls. The rule behind the calls is not given here.

Assays:
Mus musculus [1] = test: Analgesic activity in Swiss albino mouse assessed as inhibition of formalin-induced paw flinching at 80 ug/kg administered for 30 mins followed by formalin challenge measured during 10 to 30 mins post formalin challenge; format: functional
Mus musculus [2] = test: Analgesic activity in Swiss albino mouse assessed as inhibition of acetic acid-induced abdominal constriction at 80 ug/kg administered for 30 mins followed by acetic acid challenge measured after 30 mins; format: functional
Mus musculus [3] = test: Analgesic activity in Swiss albino mouse assessed as inhibition of acetic acid-induced abdominal constriction at 10 mg/kg administered for 30 mins followed by acetic acid challenge measured after 30 mins relative to vehicle-treated control; format: functional; conditions: 0.5 h
Mus musculus [4] = test: Analgesic activity in Swiss albino mouse assessed as inhibition of formalin-induced paw flinching at 10 mg/kg administered for 30 mins followed by formalin challenge measured during first 5 mins post formalin challenge; format: functional
Mus musculus [5] = test: Analgesic activity in Swiss albino mouse assessed as inhibition of formalin-induced paw flinching at 10 mg/kg administered for 30 mins followed by formalin challenge measured during 10 to 30 mins post formalin challenge relative to vehicle-treated control; format: functional
Mus musculus [6] = test: Analgesic activity in Swiss albino mouse assessed as inhibition of acetic acid-induced abdominal constriction at 10 mg/kg administered for 30 mins followed by acetic acid challenge measured after 30 mins in presence of prostaglandin analogue misoprostol; format: functional, organism-based
Mus musculus [7] = test: Acute toxicity in Swiss albino mouse assessed as behavioral abnormality at 50 to 2000 mg/kg after 14 days; format: organism-based; conditions: in vivo, 336 h
Mus musculus [8] = test: Analgesic activity in Swiss albino mouse assessed as inhibition of formalin-induced paw flinching at 10 mg/kg administered for 30 mins followed by formalin challenge measured during 10 to 30 mins post formalin challenge in presence of opioid receptor antagonist naloxone; format: functional, organism-based
THP-1 [9] = test: Antiinflammatory activity in PMA-treated human THP1 cells assessed as inhibition of LPS-induced TNF-alpha production after 24 hrs by ELISA; format: functional, cell-based; conditions: THP-1, 24 h
THP-1 [10] = test: Antiinflammatory activity in PMA-treated human THP1 cells assessed as inhibition of LPS-induced IL-6 production after 24 hrs by ELISA; format: functional, cell-based; conditions: THP-1, 24 h
Mus musculus [11] = test: Acute toxicity in Swiss albino mouse assessed as effect on liver at 2000 mg/kg after 14 days by hematoxylin and eosin staining based assay; format: organism-based; conditions: in vivo, 336 h
Mus musculus [12] = test: Analgesic activity in Swiss albino mouse assessed as inhibition of acetic acid-induced abdominal constriction at 10 mg/kg administered for 30 mins followed by acetic acid challenge measured after 30 mins in presence of opioid receptor antagonist naloxone; format: functional, organism-based
THP-1 [13] = test: Cytotoxicity against human THP1 cells assessed as decrease in cell proliferation after 24 to 48 hrs by MTT assay; format: cell-based
Mus musculus [14] = test: Acute toxicity in Swiss albino mouse assessed as effect on myocardium at 2000 mg/kg after 14 days by hematoxylin and eosin staining based assay; format: organism-based; conditions: in vivo, 336 h
Mus musculus [15] = test: Analgesic activity in Swiss albino mouse assessed as inhibition of acetic acid-induced abdominal constriction at 100 ug/kg administered for 30 mins followed by acetic acid challenge measured after 30 mins; format: functional

Q: For `C=CCN1CC[C@]23c4c5ccc(O)c4O[C@H]2C(=O)CC[C@@]3(O)[C@H]1C5`, which inhibition (Mus musculus [1]) is on record?
A: inactive

Q: And the inhibition (Mus musculus [2])?
A: inactive

Q: `Cc1ccc2c(c1)[C@@]1(C)[C@@H](CO2)CON1C` was tested. Which inhibition in vivo at 10 mg/kg (Mus musculus [3]) did it give?
A: 68.2%

Q: For `COc1ccc2c(c1)c(CC(=O)O)c(C)n2C(=O)c1ccc(Cl)cc1` [INDOMETHACIN], which inhibition (Mus musculus [4]) is on record?
A: inactive

Q: What about the inhibition in vivo at 10 mg/kg (Mus musculus [3]) of the same compound?
A: 56.7%

Q: What about the inhibition in vivo at 10 mg/kg (Mus musculus [5]) of the same compound?
A: 50.6%

Q: With `CN[C@@]1(C)c2cc(OC)ccc2OC[C@H]1CO` as the compound, how does the inhibition in vivo at 10 mg/kg (Mus musculus [3]) read?
A: 63.2%

Q: What does the source list for `COc1ccc2c(c1)[C@@]1(C)[C@@H](CO2)CON1C`?
A: inhibition (Mus musculus [6]): Active; Activity (Mus musculus [7]): Non-Toxic; inhibition (Mus musculus [8]): inactive; inhibition in vivo at 10 mg/kg (Mus musculus [4]): 62.7%; IC50 (THP-1 [9]): 4.58 µM; IC50 (THP-1 [10]): 1.12 µM; Activity (Mus musculus [11]): Non-Toxic; inhibition in vivo at 10 mg/kg (Mus musculus [3]): 69.4%; inhibition (Mus musculus [12]): inactive; inhibition in vivo at 10 mg/kg (Mus musculus [5]): 68.3%; IC50 (THP-1 [13]): > 100 µM; Activity (Mus musculus [14]): Non-Toxic

Q: Which inhibition (Mus musculus [15]) does the source give for `CCCC[C@](C)(O)C/C=C/[C@H]1[C@H](O)CC(=O)[C@@H]1CCCCCCC(=O)OC` here?
A: inactive

Q: Which inhibition in vivo at 10 mg/kg (Mus musculus [3]) does the source give for `CN[C@@]1(C)c2cc(C)ccc2OC[C@H]1CO` here?
A: 59.3%
